Experimental data taken from PubChem BioAssay AID1963836 (Molecular Pharmacology Branch, DTP, NCI, 2024).
pIC50: −log10 of the molar value.

Test system: 857933-349-R-J2-PDC complex spheroid viability
Experiment: Anticancer human tumor 857933-349-R-J2-PDC patient-derived colon adenocarcinoma cell line growth inhibition [POLQ]
Details: for pIC50: curve of first compound; for viability, T/C: stronger effect = lower value
Outline: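 Complex spheroid viability model combining PDC tumour cells with endothelial (HUVEC) and MSC stromal cells. Novobiocin, ART-558 or RP6685 were tested singly and in combination with standard and investigational anticancer drugs. Each was titrated in half-log steps from near clinical Cmax, or from 10 microM where Cmax was unknown.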

[1] = second compound 0.0316 µM, first compound 0.0316 µM
[2] = second compound 0.0316 µM, first compound 0.1 µM
[3] = second compound 0.1 µM, first compound 0.0316 µM
[4] = second compound 0.1 µM, first compound 0.1 µM
[5] = second compound 0.316 µM, first compound 0.0316 µM
[6] = second compound 0.316 µM, first compound 0.1 µM
[7] = second compound 1 µM, first compound 0.0316 µM
[8] = second compound 1 µM, first compound 0.1 µM
[9] = second compound 3.16 µM, first compound 0.0316 µM
[10] = second compound 3.16 µM, first compound 0.1 µM
[11] = second compound 10 µM, first compound 0.0316 µM
[12] = second compound 10 µM, first compound 0.1 µM
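Further: spheroids exposed to compounds for seven days before readout.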

CCCS(=O)(=O)Nc1ccc(F)c(C(=O)c2c[nH]c3ncc(-c4ccc(Cl)cc4)cc23)c1F + Cc1cccc(N(C)C(=O)C2C(O)CCN2c2nc(C)cc(C(F)(F)F)c2C#N)c1
pIC50 (second compound 0.0316 µM): 5.16 | pIC50 (second compound 0.1 µM): 5.19 | pIC50 (second compound 0.316 µM): 5.17 | pIC50 (second compound 1 µM): 5.17 | pIC50 (second compound 3.16 µM): 5.18 | pIC50 (second compound 10 µM): 5.19 | viability, T/C [1]: 87.7% | viability, T/C [2]: 104% | viability, T/C (second compound 0.0316 µM, first compound 0.316 µM): 97% | viability, T/C (second compound 0.0316 µM, first compound 1 µM): 99.3% | viability, T/C (second compound 0.0316 µM, first compound 3.16 µM): 98.8% | viability, T/C (second compound 0.0316 µM, first compound 10 µM): 28.1% | viability, T/C [3]: 106% | viability, T/C [4]: 105% | viability, T/C (second compound 0.1 µM, first compound 0.316 µM): 93.6% | viability, T/C (second compound 0.1 µM, first compound 1 µM): 94.5% | viability, T/C (second compound 0.1 µM, first compound 3.16 µM): 98.7% | viability, T/C (second compound 0.1 µM, first compound 10 µM): 19.1% | viability, T/C [5]: 107% | viability, T/C [6]: 99.6% | viability, T/C (second compound 0.316 µM, first compound 0.316 µM): 93.2% | viability, T/C (second compound 0.316 µM, first compound 1 µM): 95.5% | viability, T/C (second compound 0.316 µM, first compound 3.16 µM): 109% | viability, T/C (second compound 0.316 µM, first compound 10 µM): 24.2% | viability, T/C [7]: 95.6% | viability, T/C [8]: 111% | viability, T/C (second compound 1 µM, first compound 0.316 µM): 99.5% | viability, T/C (second compound 1 µM, first compound 1 µM): 91.3% | viability, T/C (second compound 1 µM, first compound 3.16 µM): 103% | viability, T/C (second compound 1 µM, first compound 10 µM): 23.6% | viability, T/C [9]: 92.1% | viability, T/C [10]: 96% | viability, T/C (second compound 3.16 µM, first compound 0.316 µM): 82.2% | viability, T/C (second compound 3.16 µM, first compound 1 µM): 100% | viability, T/C (second compound 3.16 µM, first compound 3.16 µM): 102% | viability, T/C (second compound 3.16 µM, first compound 10 µM): 25.2% | viability, T/C [11]: 115% | viability, T/C [12]: 99% | viability, T/C (second compound 10 µM, first compound 0.316 µM): 97% | viability, T/C (second compound 10 µM, first compound 1 µM): 99.9% | viability, T/C (second compound 10 µM, first compound 3.16 µM): 96.5% | viability, T/C (second compound 10 µM, first compound 10 µM): 22.3%

CC[C@@]1(O)C(=O)OCc2c1cc1n(c2=O)Cc2cc3c(CN(C)C)c(O)ccc3nc2-1 + Cc1cccc(N(C)C(=O)C2C(O)CCN2c2nc(C)cc(C(F)(F)F)c2C#N)c1
pIC50 (second compound 0.0316 µM): 7.19 | pIC50 (second compound 0.1 µM): 7.00 | pIC50 (second compound 0.316 µM): 7.16 | pIC50 (second compound 1 µM): 7.14 | pIC50 (second compound 3.16 µM): 7.01 | pIC50 (second compound 10 µM): 7.72 | viability, T/C (second compound 0.0316 µM, first compound 0.000316 µM): 98.7% | viability, T/C (second compound 0.0316 µM, first compound 0.001 µM): 102% | viability, T/C (second compound 0.0316 µM, first compound 0.00316 µM): 92.8% | viability, T/C (second compound 0.0316 µM, first compound 0.01 µM): 80.6% | viability, T/C [1]: 61.8% | viability, T/C [2]: 43.1% | viability, T/C (second compound 0.1 µM, first compound 0.000316 µM): 106% | viability, T/C (second compound 0.1 µM, first compound 0.001 µM): 94.5% | viability, T/C (second compound 0.1 µM, first compound 0.00316 µM): 88.4% | viability, T/C (second compound 0.1 µM, first compound 0.01 µM): 92.3% | viability, T/C [3]: 73.6% | viability, T/C [4]: 49.3% | viability, T/C (second compound 0.316 µM, first compound 0.000316 µM): 76.4% | viability, T/C (second compound 0.316 µM, first compound 0.001 µM): 108% | viability, T/C (second compound 0.316 µM, first compound 0.00316 µM): 91.4% | viability, T/C (second compound 0.316 µM, first compound 0.01 µM): 78% | viability, T/C [5]: 76.2% | viability, T/C [6]: 38.7% | viability, T/C (second compound 1 µM, first compound 0.000316 µM): 98.8% | viability, T/C (second compound 1 µM, first compound 0.001 µM): 75.8% | viability, T/C (second compound 1 µM, first compound 0.00316 µM): 83.8% | viability, T/C (second compound 1 µM, first compound 0.01 µM): 73.4% | viability, T/C [7]: 76.6% | viability, T/C [8]: 40.7% | viability, T/C (second compound 3.16 µM, first compound 0.000316 µM): 95.7% | viability, T/C (second compound 3.16 µM, first compound 0.001 µM): 79.3% | viability, T/C (second compound 3.16 µM, first compound 0.00316 µM): 77.9% | viability, T/C (second compound 3.16 µM, first compound 0.01 µM): 74.1% | viability, T/C [9]: 69.4% | viability, T/C [10]: 46% | viability, T/C (second compound 10 µM, first compound 0.000316 µM): 77.9% | viability, T/C (second compound 10 µM, first compound 0.001 µM): 92.3% | viability, T/C (second compound 10 µM, first compound 0.00316 µM): 85.2% | viability, T/C (second compound 10 µM, first compound 0.01 µM): 56.6% | viability, T/C [11]: 50.6% | viability, T/C [12]: 37.9%
